Data on three molecules can be found in patent US20140011700A1 (Bristol-Myers Squibb Company, published 2014).

Data set [1] relates to H1N1 (A/SolomonIslands/3/2006). The data set is classed as cell-based. The following applies: read-out: A/Solomon-Islands/3/2006 (EC50).
The next data set has as its system H1N1 (A/CA/07/2009). The data set is classed as cell-based.
Data set [2] addresses NP (nucleoprotein, A/WSN/33) (Influenza A virus, UniProt P15682).
Data set [3] concerns H3N2 (A/Brisbane/10/2007). The data set is classed as cell-based.
Another data set has as its system A/WSN/33. The data set is classed as cell-based.
For data set [4], the target named is Influenza A nucleoprotein (NP) (Influenza A virus (A/WSN/33, H1N1), UniProt P15682 P15682:8-498). The experiment in a line: SPR. The following applies: tags: N-terminal hexahistidine (pET28A), expressed in E. coli Rosetta II (DE3); label: 5'-biotin.

As to `COc1ccccc1-c1noc(C)c1C(=O)N1CCN(c2ccc([N+](=O)[O-])cc2Cl)CC1` [Compound B], the EC50 was 660 ± 220 nM in data set [1], greater than 20000 nM in the data set on H1N1 (A/CA/07/2009) and 7310 ± 1800 nM in data set [3]. For the same molecule, the “% Pd (polydispersity)” value in data set [2] came to 10.2%. The “Rh (nm), hydrodynamic radius” value in data set [2] is listed as 8.2 ± 0.3 nm.

On to `Cc1cc(Br)cnc1N1CCN(C(=O)c2c(-c3ccccc3Cl)noc2C)CC1` [Compound D], for which the EC50 is 2800 ± 530 nM in data set [1], greater than 20000 nM in the data set with H1N1 (A/CA/07/2009), 1020 ± 1800 nM with A/WSN/33 and greater than 20000 nM in data set [3]. Also, in data set [2], the “% Pd (polydispersity)” value is 13.5%. Also, the “Rh (nm), hydrodynamic radius” value in data set [2] amounted to 8.9 ± 0.2 nm.

B1: biotinylated 2'-O-methylated RNA oligonucleotide (ssRNA)
RNA: UAGAAACAAGGGUGUUUUUUCAGAUCUAUUAAACUUCACCCUGCUUUUGCU
modifications: 2'-OMe (stated as 2-O-methylated, positions not specified)
As a reminder, the Kd is a measure of binding affinity in units of concentration. Lower therefore signals a tighter complex. Regarding B1, binding in data set [4] was characterised by a dissociation constant (Kd) of 11.2 nM.
